Reference: patent US20140005412A1, “TREATMENT OF ARTERIAL AGEING BY HMG CoA REDUCTASE INHIBITOR” (FARMICOM PHARMACEUTICAL COMPANY D.O.O., priority 2011, published 2014)

Key:
[1] = blood plasma; cited from earlier work
[2] = tested on: right common carotid artery; test: Ultrasound measurement of pulse-wave velocity (PWV); format: in vivo, human; conditions: for PWV, after treatment: after 1 month (30 days) treatment; for PWV, improvement: after 1 month vs before treatment
Protocol: (§1) Fifty apparently healthy male individuals (42.6±1.9 years) were recruited in double blind, randomized study. Inclusion criteria were: The control group (n=25) received placebo, while the test group (n=25) received subtherapeutic daily dose of fluvastatin sodium-10 mg daily (the recommended therapeutic daily dose is 40 to 80 mg) during a period of 1 month-30 days. All subjects underwent clinical examination, blood pressure measurements ([…] automated sphygmomanometer) and ultrasound measurement of flow-mediated dilatation of brachial artery (FMD), pulse-wave velocity (PWV) and β-stiffness of carotid artery at inclusion (0th day) and after 1 month (30th day) of the study. Fasting blood samples were taken at the beginning and at the end of the study for laboratory analysis. Blood glucose, electrolytes and cholesterol were obtained using the VITRO 5.1 FS Chemical system (Ortho Clinical Diagnostics, Inc.). The measurements of PWV and β-stiffness were performed on the right common carotid artery. The Aloka ultrasound device was also equipped with special software for automatic determination of the PWV and beta-stiffness through the analysis of pulse waves (Carerj S et al. Normal vascular aging evaluated by a new tool: e-tracking. Eur J Echocardiography 2006; suppl: S 49). All values were expressed as arithmetic mean±SEM and were normally distributed. Differences between values recorded at the beginning (0th day) and at the end of the study (30th day) were determined by one-way analysis of variance (ANOVA). When a significant interaction was present, the Bonferroni post-test was performed. […] All statistical analyses were performed using Graph Pad Prism 5.0 software.

[3] = Fasting blood laboratory analysis (cholesterol, triglycerides, glucose); format: in vivo, human; conditions: Example 1, n=25, 10 mg daily, mean ± SEM
Text: All subjects underwent clinical examination, blood pressure measurements ([…] automated sphygmomanometer) and ultrasound measurement of flow-mediated dilatation of brachial artery (FMD), pulse-wave velocity (PWV) and β-stiffness of carotid artery at inclusion (0th day) and after 1 month (30th day) of the study. Fasting blood samples were taken at the beginning and at the end of the study for laboratory analysis. Blood glucose, electrolytes and cholesterol were obtained using the VITRO 5.1 FS Chemical system (Ortho Clinical Diagnostics, Inc.).

[4] = tested on: brachial artery; test: Ultrasound measurement of flow-mediated dilatation of brachial artery (FMD), endothelial function; format: in vivo, human; conditions: for FMD, after treatment: after 1 month (30 days) treatment; for FMD, improvement: after 1 month vs before treatment
Protocol: Fifty apparently healthy male individuals (42.6±1.9 years) were recruited in double blind, randomized study. Inclusion criteria were: The control group (n=25) received placebo, while the test group (n=25) received subtherapeutic daily dose of fluvastatin sodium-10 mg daily (the recommended therapeutic daily dose is 40 to 80 mg) during a period of 1 month-30 days. All subjects underwent clinical examination, blood pressure measurements ([…] automated sphygmomanometer) and ultrasound measurement of flow-mediated dilatation of brachial artery (FMD), pulse-wave velocity (PWV) and β-stiffness of carotid artery at inclusion (0th day) and after 1 month (30th day) of the study. Fasting blood samples were taken at the beginning and at the end of the study for laboratory analysis. Blood glucose, electrolytes and cholesterol were obtained using the VITRO 5.1 FS Chemical system (Ortho Clinical Diagnostics, Inc.). Ultrasound measurements were performed by a single examiner using Aloka ProSound Alpha 10 echo-machine. Endothelial function was measured by means of FMD on the brachial artery according to FMD guidelines (Corretti M C et al. Guidelines for the ultrasound assessment of endothelial-dependent flow-mediated vasodilation of the brachial artery: a report of the International Brachial Artery Reactivity Task Force. J Am Coll Cardiol 2002; 39: 257-65). The echo-machine continuously tracked and recorded the brachial artery diameter. Following the measurement of baseline brachial artery diameter (1 min), the forearm blood pressure cuff was inflated to 50 mmHg above the systolic pressure for 4 min. After the occlusion period, the cuff was rapidly deflated, inducing reactive hyperemia, and the brachial artery diameter was recorded for 3 min. At the end of the measurement, the machine automatically provided the values of FMD. All values were expressed as arithmetic mean±SEM and were normally distributed. Differences between values recorded at the beginning (0th day) and at the end of the study (30th day) were determined by one-way analysis of variance (ANOVA). When a significant interaction was present, the Bonferroni post-test was performed. […] All statistical analyses were performed using Graph Pad Prism 5.0 software.

[5] = tested on: arterial wall; test: "Biological" arterial age according to age-related normogram; format: in vivo, human
Text: It is important to emphasize that there is a similarity between the terms morphological or structural which are used to describe the same characteristics by different authors but basically disclose the same characteristics of arterial wall. All three above mentioned methods FMD, PWV, and β-stiffness are standard in the art and generally widely accepted methods for estimation of functional or morphological characteristics of arteries. When administering the pharmaceutical composition according to the present invention the significant and unexpected improvement in all above mentioned characteristics are observed. Furthermore, by using age-related normogram obtained on large sample of apparently healthy subjects—who have a low cardiovascular risk as defined above—the estimation of “biological” arterial age can be determined. […] By using age-related normogram (according to the methods described in Jurasic M J et al. Beta stiffness—setting age standards. Acta Clin Croat 2009; 48:253-8; and Carerj S. Normal vascular ageing evaluated by a new tool: e-tracking. Eur J Echocardiography 2006; suppl 1:S49. Carerj S et al. Eur J Echocardiography 2006; suppl: S 49) the “biological” arterial age in participants according to Example 1 after 1 month of treatment and according to Example 2 after 5, 7 and 8 months after discontinuation of treatment was calculated (FIG. 3).

[6] = tested on: right common carotid artery; test: Ultrasound measurement of β-stiffness of carotid artery; format: in vivo, human; conditions: for β-stiffness, after treatment: after 1 month (30 days) treatment; for β-stiffness, improvement: after 1 month vs before treatment
Protocol: as §1

[7] = tested on: arterial wall; test: "Biological" arterial age according to age-related normogram; format: in vivo, human; remark: listed apart in the source
[8] = Example 1 study, 10 mg, after 30 days of treatment
[9] = Example 2, rest period 5 months
[10] = Example 2, rest period 7 months
[11] = Example 2, rest period 8 months
[12] = Example 4, 10 mg daily, after 1 month treatment period
[13] = Example 5, rest period 3 months
[14] = Example 5, rest period 5 months
[15] = Example 5, rest period 8 months
[16] = Example 6, ten participants, 10 mg daily, 1. intervention, before
[17] = Example 6, 1. intervention, after 1 month of treatment
[18] = Example 6, 2. intervention (repetition), after 1 month of treatment
[19] = Example 6, 2. intervention (repetition), before, after rest period of 12 months

CC(C)n1c(/C=C/C(O)CC(O)CC(=O)O)c(-c2ccc(F)cc2)c2ccccc21 (stereo not drawn) [Fluvastatin sodium, fluvastatin sodium]
half-life time (t1/2) [1]: about 2.5 hours
PWV, after treatment ([2]; Example 1, 10 mg daily): 5.41 m/s
PWV, improvement ([2]; Example 1, 10 mg daily): −6.4%
PWV, before treatment ([2]; Example 1, 10 mg daily): 5.76 m/s
PWV decreased by [2, 8]: 6.4%
PWV, residual improvement in % of effect achieved after 1 month of treatment [2, 9]: 29.7%
PWV, residual improvement in % of effect achieved after 1 month of treatment [2, 10]: 10%
PWV, residual improvement in % of effect achieved after 1 month of treatment [2, 11]: 1.9%
PWV decreased by [2, 12]: 10.4%
PWV, after treatment ([2]; Example 4, 10 mg daily): 5.00 m/s
PWV, improvement ([2]; Example 4, 10 mg daily): −10.4%
PWV, before treatment ([2]; Example 4, 10 mg daily): 5.52 m/s
PWV, residual improvement in % of effect achieved after 1 month of treatment [2, 13]: 55.2%
PWV, residual improvement in % of effect achieved after 1 month of treatment [2, 14]: 30.1%
PWV, residual improvement in % of effect achieved after 1 month of treatment [2, 15]: 5.2%
PWV [2, 16]: 5.5 ± 0.4 m/s
PWV [2, 17]: 5.1 ± 0.4 m/s
PWV [2, 18]: 5.3 ± 0.3 m/s
PWV [2, 19]: 5.6 ± 0.3 m/s
HDL cholesterol ([3]; 1st day (baseline)): 1.2 ± 0.1 mmol/L
LDL cholesterol ([3]; 1st day (baseline)): 3.7 ± 0.2 mmol/L
Total cholesterol ([3]; 1st day (baseline)): 5.7 ± 0.2 mmol/L
Triglycerides ([3]; 1st day (baseline)): 1.6 ± 0.2 mmol/L
HDL cholesterol ([3]; 30th day): 1.2 ± 0.1 mmol/L
LDL cholesterol ([3]; 30th day): 3.6 ± 0.2 mmol/L
Total cholesterol ([3]; 30th day): 5.4 ± 0.2 mmol/L
Triglycerides ([3]; 30th day): 1.6 ± 0.3 mmol/L
FMD, after treatment ([4]; Example 1, 10 mg daily): 4.39%
FMD, improvement ([4]; Example 1, 10 mg daily): +91.0%
FMD, before treatment ([4]; Example 1, 10 mg daily): 2.31%
FMD increased by ([4]; Example 1 study (50 subjects, double-blind), 10 mg, after 30 days of treatment): 91.0%
FMD, residual improvement in % of effect achieved after 1 month of treatment ([4]; Example 2 (participants of Example 1), rest period 5 months): 53.3%
FMD, residual improvement in % of effect achieved after 1 month of treatment [4, 10]: 33%
FMD, residual improvement in % of effect achieved after 1 month of treatment [4, 11]: 10.5%
FMD increased by [4, 12]: 120.8%
FMD, after treatment ([4]; Example 4, 10 mg daily): 5.30%
FMD, improvement ([4]; Example 4, 10 mg daily): +120.8%
FMD, before treatment ([4]; Example 4, healthy males n=15, 10 mg daily): 2.40%
FMD, residual improvement in % of effect achieved after 1 month of treatment ([4]; Example 5 (participants of Example 4), rest period 3 months): 73.4%
FMD, residual improvement in % of effect achieved after 1 month of treatment [4, 14]: 55.2%
FMD, residual improvement in % of effect achieved after 1 month of treatment [4, 15]: 16.3%
FMD [4, 16]: 3.5 ± 0.6%
FMD [4, 17]: 5.3 ± 0.6%
FMD [4, 18]: 5.7 ± 0.2%
FMD [4, 19]: 3.9 ± 0.8%
Arterial age according to age normogram, after treatment ([5]; Example 1, 10 mg daily, after 1 month treatment): 38.2 years
Arterial age according to age normogram, improvement ([5]; Example 1, 10 mg daily, after 1 month vs before treatment): −6.8 years
Arterial age according to age normogram, before treatment ([5]; Example 1, 10 mg daily, before treatment): 45.0 years
Arterial age according to age-related normogram [5, 9]: 42.3 years
Arterial age according to age-related normogram, difference (in brackets) to before treatment [5, 9]: −2.7 years
Arterial age according to age-related normogram, difference (in brackets) to before treatment [5, 11]: −0.5 years
β-stiffness, after treatment ([6]; Example 1, 10 mg daily): 6.40 U
β-stiffness, improvement ([6]; Example 1, 10 mg daily): −10.9%
β-stiffness, before treatment ([6]; Example 1, 10 mg daily): 7.10 U
β-stiffness decreased by [6, 8]: 10.9%
β-stiffness, residual improvement in % of effect achieved after 1 month of treatment [6, 9]: 30.4%
β-stiffness, residual improvement in % of effect achieved after 1 month of treatment [6, 10]: 9%
β-stiffness, residual improvement in % of effect achieved after 1 month of treatment [6, 11]: 0.9%
β-stiffness of the carotid artery decreased by [6, 12]: 12.7%
β-stiffness, after treatment ([6]; Example 4, 10 mg daily): 6.10 U
β-stiffness, improvement ([6]; Example 4, 10 mg daily): −12.7%
β-stiffness, before treatment ([6]; Example 4, 10 mg daily): 6.88 U
β-stiffness, residual improvement in % of effect achieved after 1 month of treatment [6, 13]: 50.1%
β-stiffness, residual improvement in % of effect achieved after 1 month of treatment [6, 14]: 33.6%
β-stiffness, residual improvement in % of effect achieved after 1 month of treatment [6, 15]: 3.1%
β-stiffness [6, 16]: 6.4 ± 0.8 U
β-stiffness [6, 17]: 5.7 ± 0.7 U
β-stiffness [6, 18]: 6.0 ± 0.6 U
β-stiffness [6, 19]: 6.6 ± 0.6 U
Arterial age according to age-related normogram [7, 10]: 43.6 years
Arterial age according to age-related normogram, difference (in brackets) to before treatment [7, 10]: −1.4 years
Arterial age according to age-related normogram [7, 11]: 44.5 years
Arterial age according to age-related normogram, after treatment ([7]; Example 4, 10 mg daily, after 1 month treatment): 32.0 years
Arterial age according to age-related normogram, improvement ([7]; Example 4, 10 mg daily, after 1 month vs before treatment): −9.0 years
Arterial age according to age-related normogram, before treatment ([7]; Example 4, 10 mg daily, before treatment): 41.0 years
Arterial age according to age-related normogram [7, 13]: 34.2 years
Arterial age according to age-related normogram, difference (in brackets) to before treatment [7, 13]: −6.8 years
Arterial age according to age-related normogram [7, 14]: 36.4 years
Arterial age according to age-related normogram, difference (in brackets) to before treatment [7, 14]: −4.6 years
Arterial age according to age-related normogram [7, 15]: 40.0 years
Arterial age according to age-related normogram, difference (in brackets) to before treatment [7, 15]: −1.0 years
